Measurements taken from patent publication US20120045393A1 (priority 2009, published 2012).
Starred links: 1 amine or outer side, 2 acyl side, 3 side chain; linkers in the order of their positions; H or OH if unused. Non-standard residues stand in square brackets, D forms with d. Residues, ends and D or L forms follow the SMILES beside them. *: point of attachment. DOTA = O=C(O)CN1CCN(CC(=O)O)CCN(CC(=O)*)CCN(CC(=O)O)CC1; Bpa = N[C@@H](Cc1ccc(C(=O)c2ccccc2)cc1)C(=O)O; d2Nal = N[C@H](Cc1ccc2ccccc2c1)C(=O)O; X2 = O=C(N(N[*:1])c1ccccn1)[*:2]; NHPh = c1ccc(N*)cc1; azaGly = NNC(=O)O; Sar = CNCC(=O)O

test system: LHRH binding sites on human ovarian cancer cells (EFO-27); conditions: not given
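Further: Cell-associated radioactivity on confluent EFO-27 monolayers in 96-well plates, measured by microplate scintillation counting.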

Structure (SMILES)	EC50
CC(C)C[C@H](NC(=O)[C@H](CO)NC(=O)[C@H](Cc1c[nH]c2ccccc12)NC(=O)[C@H](CCCNC(=N)N)NC(=O)[C@@H](Cc1ccc2ccccc2c1)NC(=O)CN1CCN(CC(=O)O)CCN(CC(=O)O)CCN(CC(=O)O)CC1)C(=O)N[C@H](CCCNC(=N)N)C(=O)N[C@@H](Cc1c[nH]c2ccccc12)C(=O)N[C@@H](Cc1ccc(C(=O)c2ccccc2)cc1)C(=O)N1CCC[C@H]1C(=O)NNC(N)=O [BRU-3029] ({DOTA}-[d2Nal]RWSL[dR]W[Bpa]P[azaGly]-NH2; C-terminus assumed)	1210 nM
CNCC(=O)N[C@@H](CCCNC(=N)N)C(=O)N[C@@H](Cc1c[nH]c2ccccc12)C(=O)N[C@@H](CO)C(=O)N[C@@H](Cc1c[nH]cn1)C(=O)N[C@H](CCCNC(=N)N)C(=O)N[C@@H](Cc1c[nH]c2ccccc12)C(=O)N[C@@H](Cc1ccc(C(=O)c2ccccc2)cc1)C(=O)N1CCC[C@H]1C(=O)NCCOCCOCCNC(=O)CN1CCN(CC(=O)O)CCN(CC(=O)O)CCN(CC(=O)O)CC1 [compound 3043]	330 ± 180 nM
N=C(N)NCCC[C@H](NC(=O)[C@@H](Cc1ccc2ccccc2c1)NC(=O)CN1CCN(CC(=O)O)CCN(CC(=O)O)CCN(CC(=O)O)CC1)C(=O)N[C@@H](Cc1c[nH]c2ccccc12)C(=O)N[C@@H](CO)C(=O)N[C@@H](Cc1c[nH]cn1)C(=O)N[C@H](CCCNC(=N)N)C(=O)N[C@@H](Cc1c[nH]c2ccccc12)C(=O)N[C@@H](Cc1ccc(C(=O)c2ccccc2)cc1)C(=O)O [compound 3064] ({DOTA}-[d2Nal]RWSH[dR]W[Bpa]-OH; N-terminus assumed)	670 nM
CC(=O)N[C@H](Cc1ccc2ccccc2c1)C(=O)N[C@@H](CCCNC(=N)N)C(=O)N[C@@H](Cc1c[nH]c2ccccc12)C(=O)N[C@@H](CO)C(=O)N[C@@H](Cc1c[nH]cn1)C(=O)N[C@H](CCCNC(=N)N)C(=O)N[C@@H](Cc1c[nH]c2ccccc12)C(=O)N[C@@H](Cc1ccc(C(=O)c2ccccc2)cc1)C(=O)N1CCC[C@H]1C(=O)NCCOCCNC(=O)CN1CCN(CC(=O)O)CCN(CC(=O)O)CCN(CC(=O)O)CC1 [BRU-2992]	230 to 500 nM
CNCC(=O)N[C@@H](CCCNC(=N)N)C(=O)N[C@@H](Cc1c[nH]c2ccccc12)C(=O)N[C@@H](CO)C(=O)N[C@@H](Cc1c[nH]cn1)C(=O)N[C@H](CCCNC(=N)N)C(=O)N[C@@H](Cc1c[nH]c2ccccc12)C(=O)N[C@@H](Cc1ccc(C(=O)c2ccccc2)cc1)C(=O)N1CCC[C@H]1C(=O)NCCCN1CCN(CCCNC(=O)CN2CCN(CC(=O)O)CCN(CC(=O)O)CCN(CC(=O)O)CC2)CC1 [BRU-3044]	230 to 500 nM
CSCC[C@H](NC(=O)[C@H](Cc1c[nH]c2ccccc12)NC(=O)[C@H](CCCNC(=N)N)NC(=O)[C@@H](Cc1ccc2ccccc2c1)NC(=O)CN1CCN(CC(=O)O)CCN(CC(=O)O)CCN(CC(=O)O)CC1)C(=O)N[C@@H](Cc1c[nH]cn1)C(=O)N[C@H](CCCNC(=N)N)C(=O)N[C@@H](Cc1c[nH]c2ccccc12)C(=O)N[C@@H](Cc1ccc(C(=O)c2ccccc2)cc1)C(=O)N1CCC[C@H]1C(=O)NNC(N)=O [BRU-2964] ({DOTA}-[d2Nal]RWMH[dR]W[Bpa]P[azaGly]-NH2)	220 nM
CNCC(=O)N[C@@H](CCCNC(=N)N)C(=O)N[C@@H](Cc1c[nH]c2ccccc12)C(=O)N[C@@H](CO)C(=O)N[C@@H](Cc1c[nH]cn1)C(=O)N[C@H](CCCNC(=N)N)C(=O)N[C@@H](Cc1c[nH]c2ccccc12)C(=O)N[C@@H](Cc1ccc(C(=O)c2ccccc2)cc1)C(=O)N1CCC[C@H]1C(=O)NCCCN1CCN(CCCNC(=O)CN2CCN(CC(=O)O)CCN(CC(=O)O)CCN(CC(=O)O)CC2)CC1 [compound 3044]	240 ± 80 nM
N=C(N)NCCC[C@H](NC(=O)[C@H](N)Cc1ccc2ccccc2c1)C(=O)N[C@@H](Cc1c[nH]c2ccccc12)C(=O)N[C@@H](CO)C(=O)N[C@@H](Cc1c[nH]cn1)C(=O)N[C@H](CCCNC(=N)N)C(=O)N[C@@H](Cc1c[nH]c2ccccc12)C(=O)N[C@@H](Cc1ccc(C(=O)c2ccccc2)cc1)C(=O)N1CCC[C@H]1C(=O)NCCCCNC(=O)CN1CCN(CC(=O)O)CCN(CC(=O)O)CCN(CC(=O)O)CC1 [compound 3042]	200 nM
CNCC(=O)N[C@@H](CCCNC(=N)N)C(=O)N[C@@H](Cc1c[nH]c2ccccc12)C(=O)N[C@@H](CO)C(=O)N[C@@H](Cc1c[nH]cn1)C(=O)N[C@H](CCCNC(=N)N)C(=O)N[C@@H](Cc1c[nH]c2ccccc12)C(=O)N[C@@H](Cc1ccc(C(=O)c2ccccc2)cc1)C(=O)N1CCC[C@H]1C(=O)NCCNC(=O)CN1CCN(CC(=O)O)CCN(CC(=O)O)CCN(CC(=O)O)CC1 [BRU-3103]	≤ 200 nM
CN(CC(=O)N[C@@H](Cc1c[nH]cn1)C(=O)N[C@@H](Cc1c[nH]c2ccccc12)C(=O)N[C@@H](CO)C(=O)N[C@@H](Cc1c[nH]cn1)C(=O)N[C@H](CCCNC(=N)N)C(=O)N[C@@H](Cc1c[nH]c2ccccc12)C(=O)N[C@@H](Cc1ccc(Oc2ccc(O)cc2)cc1)C(=O)N1CCC[C@H]1C(=O)NNC(N)=O)C(=O)CN1CCN(CC(=O)O)CCN(CC(=O)O)CCN(CC(=O)O)CC1 [BRU-2823]	1610 nM
CNCC(=O)N[C@@H](CCCNC(=N)N)C(=O)N[C@@H](Cc1c[nH]c2ccccc12)C(=O)N[C@@H](CO)C(=O)N[C@@H](Cc1c[nH]cn1)C(=O)N[C@H](CCCNC(=N)N)C(=O)N[C@@H](Cc1c[nH]c2ccccc12)C(=O)N[C@@H](Cc1ccc(C(=O)c2ccccc2)cc1)C(=O)N1CCC[C@H]1C(=O)NCCCN(C)CCCNC(=O)CN1CCN(CC(=O)O)CCN(CC(=O)O)CCN(CC(=O)O)CC1 [compound 3045]	210 ± 80 nM
CNCC(=O)N[C@@H](CCCNC(=N)N)C(=O)N[C@@H](Cc1c[nH]c2ccccc12)C(=O)N[C@@H](CO)C(=O)N[C@@H](Cc1c[nH]cn1)C(=O)N[C@H](CCCNC(=N)N)C(=O)N[C@@H](Cc1c[nH]c2ccccc12)C(=O)N[C@@H](Cc1ccc(C(=O)c2ccccc2)cc1)C(=O)N1CCC[C@H]1C(=O)N1CCCCC1CNC(=O)CN1CCN(CC(=O)O)CCN(CC(=O)O)CCN(CC(=O)O)CC1 (stereo partly drawn) [BRU-3102]	≤ 200 nM

same assay, conditions: BRU-2813 vs BRU-2666; BRU-2964 vs BRU-2813

Structure (SMILES)	more potency than the comparator analog
CSCC[C@H](NC(=O)[C@H](Cc1c[nH]c2ccccc12)NC(=O)[C@H](CCCNC(=N)N)NC(=O)[C@@H](Cc1ccc2ccccc2c1)NC(=O)CN1CCN(CC(=O)O)CCN(CC(=O)O)CCN(CC(=O)O)CC1)C(=O)N[C@@H](Cc1c[nH]cn1)C(=O)N[C@H](CCCNC(=N)N)C(=O)N[C@@H](Cc1c[nH]c2ccccc12)C(=O)N[C@@H](Cc1ccc(C(=O)c2ccccc2)cc1)C(=O)N1CCC[C@H]1C(=O)NNC(N)=O [BRU-2964] ({DOTA}-[d2Nal]RWMH[dR]W[Bpa]P[azaGly]-NH2)	30%

same assay, conditions: EFO-27 cells, competition with [125I-Tyr8]BRU-2477, 90 min

Structure (SMILES)	EC50
N=C(N)NCCC[C@H](NC(=O)[C@@H](Cc1ccc2ccccc2c1)NC(=O)CN1CCN(CC(=O)O)CCN(CC(=O)O)CCN(CC(=O)O)CC1)C(=O)N[C@@H](Cc1c[nH]c2ccccc12)C(=O)N[C@@H](CO)C(=O)N[C@@H](Cc1c[nH]cn1)C(=O)N[C@H](CCCNC(=N)N)C(=O)N[C@@H](Cc1c[nH]c2ccccc12)C(=O)N[C@@H](Cc1ccc(C(=O)c2ccccc2)cc1)C(=O)N1CCC[C@H]1C(=O)NCC(=O)N[C@@H](CCC(N)=O)C(N)=O [compound 2971] ({DOTA}-[d2Nal]RWSH[dR]W[Bpa]PGQ-NH2)	490 nM
N=C(N)NCCC[C@H](NC(=O)[C@@H](Cc1ccc2ccccc2c1)NC(=O)CN1CCN(CC(=O)O)CCN(CC(=O)O)CCN(CC(=O)O)CC1)C(=O)N[C@@H](Cc1c[nH]c2ccccc12)C(=O)N[C@@H](CO)C(=O)N[C@@H](Cc1c[nH]cn1)C(=O)N[C@H](CCCNC(=N)N)C(=O)N[C@@H](Cc1c[nH]c2ccccc12)C(=O)N[C@@H](Cc1ccc(C(=O)c2ccccc2)cc1)C(=O)N1CCC[C@H]1C(=O)NCC(=O)NCCCCO [compound 2986]	1660 nM
N=C(N)NCCC[C@H](NC(=O)[C@@H](Cc1ccc2ccccc2c1)NC(=O)CN1CCN(CC(=O)O)CCN(CC(=O)O)CCN(CC(=O)O)CC1)C(=O)N[C@@H](Cc1c[nH]c2ccccc12)C(=O)N[C@@H](CO)C(=O)N[C@@H](Cc1c[nH]cn1)C(=O)N[C@H](CCCNC(=N)N)C(=O)N[C@@H](Cc1c[nH]c2ccccc12)C(=O)N[C@@H](Cc1ccc(C(=O)c2ccccc2)cc1)C(=O)N1CCC[C@H]1C(=O)NCC(=O)NN(C(=O)Nc1ccccc1)c1ccccn1 [compound 2989] ({DOTA}-[d2Nal]RWSH[dR]W[Bpa]PG[X2]-NHPh)	1130 nM
N=C(N)NCCC[C@H](NC(=O)[C@H](Cc1ccc(OP(=O)(O)O)cc1)NC(=O)CN1CCN(CC(=O)O)CCN(CC(=O)O)CCN(CC(=O)O)CC1)C(=O)N[C@@H](Cc1c[nH]c2ccccc12)C(=O)N[C@@H](CO)C(=O)N[C@@H](Cc1c[nH]cn1)C(=O)N[C@H](CCCNC(=N)N)C(=O)N[C@@H](Cc1c[nH]c2ccccc12)C(=O)N[C@@H](Cc1ccc(C(=O)c2ccccc2)cc1)C(=O)N1CCC[C@H]1C(=O)NNC(N)=O [BRU-3093]	17000 nM
CCN=C(NCC)NCCCC[C@@H](NC(=O)[C@H](Cc1c[nH]cn1)NC(=O)[C@H](CO)NC(=O)[C@H](Cc1c[nH]c2ccccc12)NC(=O)[C@H](Cc1c[nH]cn1)NC(=O)CN(C)C(=O)CN1CCN(CC(=O)O)CCN(CC(=O)O)CCN(CC(=O)O)CC1)C(=O)N[C@@H](Cc1c[nH]c2ccccc12)C(=O)N[C@@H](Cc1ccc(C(=O)c2ccccc2)cc1)C(=O)N1CCC[C@H]1C(=O)NNC(N)=O [BRU-2880]	8020 nM

same assay, conditions: Table 5: modifications of amino acids at positions 1 and 2; in vitro binding on EFO-27 cells

Structure (SMILES)	EC50
N=C(N)NCCC[C@@H](NC(=O)[C@H](Cc1c[nH]cn1)NC(=O)[C@H](CO)NC(=O)[C@H](Cc1c[nH]c2ccccc12)NC(=O)[C@H](Cc1c[nH]cn1)NC(=O)CNC(=O)CNC(=O)CN1CCN(CC(=O)O)CCN(CC(=O)O)CCN(CC(=O)O)CC1)C(=O)N[C@@H](Cc1c[nH]c2ccccc12)C(=O)N[C@@H](Cc1ccc(C(=O)c2ccccc2)cc1)C(=O)N1CCC[C@H]1C(=O)NNC(N)=O [BRU-2795]	1370 nM
CN(CC(=O)N[C@@H](Cc1ccccc1)C(=O)N[C@@H](Cc1c[nH]c2ccccc12)C(=O)N[C@@H](CO)C(=O)N[C@@H](Cc1c[nH]cn1)C(=O)N[C@H](CCCNC(=N)N)C(=O)N[C@@H](Cc1c[nH]c2ccccc12)C(=O)N[C@@H](Cc1ccc(C(=O)c2ccccc2)cc1)C(=O)N1CCC[C@H]1C(=O)NNC(N)=O)C(=O)CN1CCN(CC(=O)O)CCN(CC(=O)O)CCN(CC(=O)O)CC1 [BRU-2738] ({DOTA}-[Sar]FWSH[dR]W[Bpa]P[azaGly]-NH2)	1220 nM

same assay, conditions: Table 11: modification of amino acid at position 5; EFO-27 cells

Structure (SMILES)	EC50
CC(C)C[C@H](NC(=O)[C@@H](CCCNC(=N)N)NC(=O)[C@H](Cc1ccc(O)cc1)NC(=O)[C@H](CO)NC(=O)[C@H](Cc1c[nH]c2ccccc12)NC(=O)[C@H](Cc1c[nH]cn1)NC(=O)CN(C)C(=O)CN1CCN(CC(=O)O)CCN(CC(=O)O)CCN(CC(=O)O)CC1)C(=O)N[C@@H](Cc1ccc(C(=O)c2ccccc2)cc1)C(=O)N1CCC[C@H]1C(=O)NNC(N)=O [compound 2670] ({DOTA}-[Sar]HWSY[dR]L[Bpa]P[azaGly]-NH2)	8840 nM
